Assay results as given in patent US20240262793A1, “QUINAZOLINE COMPOUND, AND PREPARATION METHOD THEREFOR AND APPLICATION THEREOF” (SHANGHAI PHARMACEUTICALS HOLDING CO., LTD., priority 2021, published 2024).

How the values were obtained:
Assay type in all cases: cell-based
Conditions in all cases: Homo sapiens, LPS 100 ng/mL
IL-6 = experiment: Inhibition of IL-6 in PMA-differentiated, LPS-stimulated THP-1 cells (ELISA of cell supernatant)
Description: (§1) (1) Cell culture and inoculation: A stock solution of PMA at 1 mg/mL was diluted with serum-free RP1640 medium to prepare a 100 ng/mL PMA solution. Normal cultured THP-1 cells were centrifuged, resuspended in a complete medium (RP1640 medium containing 10% FBS), and counted. The cell density was adjusted to 2×10^6 cells/mL. An equal volume of 100 ng/mL PMA solution was then added, resulting in a cell density of 1×10^6 cells/mL and a final PMA concentration of 50 ng/mL. 100 μL of the cell suspension was seeded into each well of a 96-well cell culture plate with 1×10^5 cells per well. The 96-well cell culture plate was then incubated at 37° C. in a 5% CO2 atmosphere for 24 hours.
(§2) (2) Drug treatment of cells: On the second day, LPS was added to the complete medium to adjust the final concentration to 100 ng/mL, and the compound was prepared using this LPS-containing medium. The compound was added to the appropriate cell wells according to the prepared concentration gradient. The positive control group (LPS+) was a culture medium solution containing a final concentration of 100 ng/mL LPS and 0.1% DMSO without drugs, while the negative control group (LPS-) was a culture medium solution containing 0.1% DMSO without LPS. The volume in each well was 100 μL.
(§3) (3) Test sample collection: The mixture was centrifuged at 1000 rpm for 5 minutes and the cell supernatant and cell precipitate were collected separately. The cell supernatant was used to detect TNF-α and IL-6, and the cell precipitate was collected for IL-1β detection. After collecting the cell supernatant, the remaining liquid in the wells was discarded and 100 μL of cell lysis solution (20 mM Tris 8.0; 2 mM EDTA; 0.5% Triton X-100) was added to each well for complete lysis.
(§4) (4) Sample detection: The enzyme-linked immunosorbent assay (ELISA) was used to detect the content of each cytokine. The specific steps were performed according to the instructions provided in the corresponding kit manuals. The catalog numbers of kits are as follows: • Human TNF-alpha Quantikine ELISA Kit, Catalog # STA00D • Human IL-1 beta/IL-1F2 Quantikine ELISA Kit, Catalog # SLB50 • Human IL-6 Quantikine ELISA Kit, Catalog # S6050.
(§5) (5) Data analysis: The in vitro inhibitory activity of the compounds was calculated using the following formula: […]

TNF-α = experiment: Inhibition of TNF-α in PMA-differentiated, LPS-stimulated THP-1 cells (ELISA of cell supernatant)
Description: as §1, §2, §3, §4, §5

IL-1β = experiment: Inhibition of IL-1β in PMA-differentiated, LPS-stimulated THP-1 cells (ELISA of cell lysate)
Description: as §1, §2, §3, §4, §5

Row | Structure (SMILES) | IC50 (IL-6; THP-1, Table 7, PMA 50 ng/mL) [µM] | IC50 (TNF-α; THP-1, Table 7, PMA 50 ng/mL) [µM] | IC50 (IL-6; THP-1, Table 8, PMA 50 ng/mL) [µM] | other results
1 | CC(CCCN1C(=O)CNC1=O)Nc1ccnc2cc(F)ccc12 (centres unmarked) [Example 12, 3-(4-((7-Fluoroquinolin-4-yl)amino)pentyl)imidazolidine-2,4-dione] | 20.5 | – | – | –
2 | CC(CCCN1C(=O)CCC1=O)Nc1ncnc2cc(Cl)ccc12 (centres unmarked) [Example 15, 1-(4-((7-Chloroquinazolin-4-yl)amino)pentyl)pyrrolidine-2,5-dione] | 1.24 | 17.4 | – | –
3 | CC(CCCN(CCO)Cc1cccc(F)c1)Nc1ncnc2cc(Cl)ccc12 (centres unmarked) [Example 20, 2-((4-((7-Chloroquinazolin-4-yl)amino)pentyl)(3-fluorobenzyl)amino)ethan-1-ol] | 0.47 | 6.4 | – | IC50 (IL-1β; THP-1, Table 7, PMA 50 ng/mL): 5.9 µM
4 | CCOc1ncccc1CNCCCC(C)Nc1ccnc2cc(Cl)ccc12 (centres unmarked) [Example 5, N^4-(7-Chloroquinolin-4-yl)-N^1-((2-ethoxypyridin-3-yl)methyl)pentane-1,4-diamine] | 3.95 | 25.6 | – | IC50 (IL-1β; THP-1, Table 7, PMA 50 ng/mL): 19.5 µM
5 | CC(CCCN(CCO)Cc1cccc(F)c1)Nc1ccnc2cc(Cl)ccc12 (centres unmarked) [Example 17, 2-((4-((7-Chloroquinolin-4-yl)amino)pentyl)(3-fluorobenzyl)amino)ethan-1-ol] | 0.641 | 4.72 | – | IC50 (IL-1β; THP-1, Table 7, PMA 50 ng/mL): 23.6 µM
6 | CC(CCCN1CCS(=O)(=O)CC1)Nc1ccnc2cc(Cl)ccc12 (centres unmarked) [Example 1, 4-(4-((7-Chloroquinolin-4-yl)amino)pentyl)thiomorpholine-1,1-dioxide] | 0.86 | 31.7 | – | IC50 (IL-1β; THP-1, Table 7, PMA 50 ng/mL): 23.1 µM
7 | CC(CCCN(CCO)Cc1c(F)cccc1Cl)Nc1ccnc2cc(Cl)ccc12 (centres unmarked) [Example 29, 2-((2-Fluoro-6-chlorobenzyl)(4-((7-chloroquinolin-4-yl)amino)pentyl)amino)ethan-1-ol] | 0.36 | 2.63 | – | IC50 (IL-1β; THP-1, Table 7, PMA 50 ng/mL): 4.11 µM
8 | CC(CCCN1CC2(COC2)C1)Nc1ccnc2cc(Cl)ccc12 (centres unmarked) [Example 6, N-(5-(2-Oxa-6-azaspiro[3.3]heptan-6-yl)pentan-2-yl)-7-chloroquinolin-4-amine] | 23.9 | 32.7 | – | –
9 | COC(=O)c1ccc(CN(CCO)CCCC(C)Nc2ncnc3cc(Cl)ccc23)cc1 (centres unmarked) [Example 36, Methyl 4-(((4-((7-chloroquinazolin-4-yl)amino)pentyl)(2-hydroxyethyl)amino)methyl)benzoate] | 1.05 | 6.86 | – | IC50 (IL-1β; THP-1, Table 7, PMA 50 ng/mL): 17.2 µM
10 | CC(CCCN(CCO)Cc1ncn(C)n1)Nc1ccnc2cc(Cl)ccc12 (centres unmarked) [Example 33, 2-((4-((7-Chloroquinolin-4-yl)amino)pentyl)((1-methyl-1H-1,2,4-triazol-3-yl)methyl)amino)ethan-1-ol] | 3.85 | – | – | –
11 | CC(CCCN(CCO)Cc1cnccn1)Nc1ccnc2cc(Cl)ccc12 (centres unmarked) [Example 32, 2-((4-((7-Chloroquinolin-4-yl)amino)pentyl)(pyrazin-2-ylmethyl)amino)ethan-1-ol] | 0.63 | – | – | –
12 | CC(CCCN(CCO)Cc1c(F)cccc1Cl)Nc1ncnc2cc(Cl)ccc12 (centres unmarked) [Example 38] | 0.12 | 7.28 | – | –
13 | CC(CCCNCCN1CCCC1)Nc1ccnc2cc(Cl)ccc12 (centres unmarked) [Example 3, N^4-(7-Chloroquinolin-4-yl)-N^1-(2-(pyrrolidin-1-yl)ethyl)pentane-1,4-diamine] | 5.53 | 56.5 | – | –
14 | CC(CCCN1CC2(CCOCC2)C1)Nc1ncnc2cc(F)ccc12 (centres unmarked) [Example 14, N-(5-(7-Oxa-2-azaspiro[3.5]nonan-2-yl)pentan-2-yl)-7-fluoroquinazolin-4-amine] | 2.98 | – | – | –

Further lines, with some results ahead:

Row | IC50 (IL-6; THP-1, Table 7, PMA 50 ng/mL) [µM] | IC50 (TNF-α; THP-1, Table 7, PMA 50 ng/mL) [µM] | IC50 (IL-6; THP-1, Table 8, PMA 50 ng/mL) [µM] | Structure (SMILES) | other results
15 | 1.15 | 18.5 | – | CS(=O)(=O)c1ccc(CN(CCO)CCCCCNc2ncnc3cc(F)ccc23)cc1 [Example 49] | IC50 (IL-1β; THP-1, Table 7, PMA 50 ng/mL): 48.2 µM
16 | – | – | 0.58 | CC1(C)NC(=O)N(CCCCCNc2ncnc3cc(Cl)ccc23)C1=O [Example 69, 3-(5-((7-Chloroquinazolin-4-yl)amino)pentyl)-5,5-dimethylimidazoline-2,4-dione] | IC50 (TNF-α; THP-1, Table 8, PMA 50 ng/mL): 11.7 µM; IC50 (IL-1β; THP-1, Table 8, PMA 50 ng/mL): 13.7 µM
17 | – | – | 0.3 | O=C1NC2(CCCC2)C(=O)N1CCCCCNc1ncnc2cc(Cl)ccc12 [Example 66, 3-(5-((7-Chloroquinazolin-4-yl)amino)pentyl)-1,3-diazaspiro[4.4]nonane-2,4-dione] | IC50 (TNF-α; THP-1, Table 8, PMA 50 ng/mL): 3.41 µM; IC50 (IL-1β; THP-1, Table 8, PMA 50 ng/mL): 37.4 µM
18 | – | – | 0.34 | O=C1NC2(CC2)C(=O)N1CCCCCNc1ncnc2cc(F)ccc12 [Example 55, 6-(5-((7-Fluoroquinazolin-4-yl)amino)pentyl)-4,6-diazaspiro[2.4]heptane-5,7-dione] | IC50 (TNF-α; THP-1, Table 8, PMA 50 ng/mL): 34.9 µM; IC50 (IL-1β; THP-1, Table 8, PMA 50 ng/mL): 63.8 µM
19 | – | – | 0.23 | CC(CCCN1C(=O)NC2(CCCC2)C1=O)Nc1ncnc2cc(Cl)ccc12 (centres unmarked) [Example 72, 3-(4-((7-Chloroquinazolin-4-yl)amino)pentyl)-1,3-diazaspiro[4.4]nonane-2,4-dione] | IC50 (TNF-α; THP-1, Table 8, PMA 50 ng/mL): 7.5 µM; IC50 (IL-1β; THP-1, Table 8, PMA 50 ng/mL): 12.8 µM
20 | – | – | 19.9 | C[C@H](CCCN1C(=O)NC2(CC2)C1=O)Nc1ncnc2cc(Cl)ccc12 [Example 76, (R)-6-(4-((7-Chloroquinazolin-4-yl)amino)pentyl)-4,6-diazaspiro[2.4]heptane-5,7-dione] | IC50 (TNF-α; THP-1, Table 8, PMA 50 ng/mL): 96.1 µM; IC50 (IL-1β; THP-1, Table 8, PMA 50 ng/mL): 110 µM
21 | – | – | 2.02 | O=C1NC2(CC2)C(=O)N1CCCCNc1ncnc2cc(Cl)ccc12 [Example 65, 6-(4-((7-Chloroquinazolin-4-yl)amino)butyl)-4,6-diazaspiro[2.4]heptane-5,7-dione] | –
22 | – | – | 34 | O=C1NC2(CCNCC2)C(=O)N1CCCCNc1ncnc2cc(F)ccc12 [Example 60, 3-(4-((7-Fluoroquinazolin-4-yl)amino)butyl)-1,3,8-triazaspiro[4.5]decane-2,4-dione] | –
23 | – | – | 0.46 | O=C1NC2(CCC2)C(=O)N1CCCCCNc1ncnc2cc(Cl)ccc12 [Example 70, 7-(5-((7-Chloroquinazolin-4-yl)amino)pentyl)-5,7-diazaspiro[3.4]octane-6,8-dione] | –
24 | – | – | 5.84 | O=C1NC2(CC2)C(=O)N1CCCCNc1ncnc2cc(F)ccc12 [Example 61, 6-(4-((7-Fluoroquinazolin-4-yl)amino)butyl)-4,6-diazaspiro[2.4]heptane-5,7-dione] | IC50 (IL-1β; THP-1, Table 8, PMA 50 ng/mL): 134 µM
25 | 30.4 | – | – | CC(CCCN(CCO)Cc1ncco1)Nc1ccnc2cc(F)ccc12 (centres unmarked) [Example 41] | –
26 | – | – | 12.4 | C[C@H](CCCN1C(=O)CNC1=O)Nc1ncnc2cc(Cl)ccc12 [Example 74, (R)-3-(4-((7-Chloroquinazolin-4-yl)amino)pentyl)imidazolidine-2,4-dione] | –
27 | 0.27 | 56.7 | – | OCCN(CCCCCNc1ncnc2cc(Cl)ccc12)Cc1ncco1 [Example 46, 2-((5-((7-Chloroquinazolin-4-yl)amino)pentyl)(oxazol-2-ylmethyl)amino)ethan-1-ol] | –
28 | – | – | 0.42 | O=C1NC2(CC2)C(=O)N1CCCCCNc1ncnc2cc(Cl)ccc12 [Example 68, 6-(5-((7-Chloroquinazolin-4-yl)amino)pentyl)-4,6-diazaspiro[2.4]heptane-5,7-dione] | –
29 | – | – | 0.52 | CC1(C)NC(=O)N(CCCCCNc2ncnc3cc(F)ccc23)C1=O [Example 53, 3-(5-((7-Fluoroquinazolin-4-yl)amino)pentyl)-5,5-dimethylimidazoline-2,4-dione] | IC50 (IL-1β; THP-1, Table 8, PMA 50 ng/mL): 118 µM
30 | – | – | 3.99 | O=C1CNC(=O)N1CCCCCNc1ncnc2cc(F)ccc12 [Example 50, 3-(5-((7-Fluoroquinazolin-4-yl)amino)pentyl)imidazolidine-2,4-dione] | IC50 (IL-1β; THP-1, Table 8, PMA 50 ng/mL): 122 µM
